Data from patent US20040126359A1, “Hedgehog” (priority 2001, published 2004).

Test system: CD4+ T-cells
Assay: Real time PCR of Shh, ptc, Gli1 and bcl-2 transcripts in sub-optimally activated CD4+ T-cells
Assay type: cell-based, mouse
Method: CD4^+ T-cells were cultured as above in 48 well plates with and without addition of exogenous Shh or 5E1. At various time points (24 hr, 48 hr, 72 hr) post-activation, the CD4^+ T-cells were spun at 300 g for 7 mins then resuspended in lysis buffer provided as part of the RNeasy kit used for the RNA isolation (Qiagen Ltd, Crawley, UK). Any contaminating DNA was then digested by treating the RNA with DnaseI (Life Technologies) according to the manufacturer's instructions. In order to check that no contaminating DNA remained, a PCR was carried out using genomic β-actin primers (forward primer 5′-CCACCAACTGGGACACATG-3′ (SEQ ID NO:10) and reverse primer 5′-[…]-3′ (SEQ ID NO:11)) (MWG-Biotech AG). The PCR program was as follows: 35 cycles of 30 secs at 94° C., 1 min at 58° C., 2 mins at 72° C. followed by a 5 min 72° C. extension then 4° C. hold. This was carried out on a PTC-200 Peltier thermal cycler (MJ Research Inc., Massachusetts, USA).
Unless otherwise stated all materials for real time PCR were supplied by Applied Biosytems UK, Cheshire, UK. 400 ng of RNA was reverse transcribed using the Multiscribe RT kit. Samples were incubated for 10 min at 25° C., 40mins at 48° C. then 5 min at 95° C. to allow the reverse transcription to take place. cDNA samples were then diluted 1:5 in nuclease-free water (Promega). The PCR step was carried out using Taqman Universal PCR Mastermix, a primer/probe mix specific to the gene of interest and a primer/probe mix specific to 18s rRNA control reagent. The following primer/probe sequences were used:
These probes were all labelled with the fluorescent dye fam (6-carboxy-fluorescein). The primer/probe mix for 18S was supplied by Applied Biosystems which was labelled with the fluorescent dye vic™. Each cDNA sample was run in duplicate 25 μl volumes on a capped 96-well optical reaction plate. The plate was run in the ABI Prism 7700 sequence detector using SDS software. The PCR conditions were as follows: 50° C. for 2 min, 95° C. for 10 min then 40 cycles of 15 sec at 95° C. and 1 min at 60° C. The software then analysed the data and output a pair of ‘ct’ values for each sample. ‘Ct’ is the number of cycles needed to result in a signal crossing a set threshold. Each sample yielded two ct values, one for the gene of interest and one for the 18S house keeping control. The ct values were then transported to a Microsoft Excel spreadsheet and analysed to give a value representing the relative mRNA levels present for the gene of interest linearly as per the manufacturers instructions.
In order to analyse the mechanisms of Shh amplification of TCR mediated activation in CD4^+ T-cells, the kinetics of expression of components of the Shh signalling pathway and bcl-2 were analysed in activated CD4^+ T-cells in the presence and absence of exogenous Shh. CD4^+ T-cell cultures were set up as before, sub-optimally activated with anti-CD3/CD28 and Shh was added at t=0. RNA was extracted at 24, 48 and 72 hr post-activation. It has been reported that a 2× or greater increase in the transcription of any gene on at least 2 occasions is considered to be significant (Chtanova et al and Granucci et al).

[1] = Shh peptide at t=0, 24, 48, 72 hr

Shh peptide: Recombinant mouse Shh amino-terminal peptide (R&D systems); biologically active N-terminal Sonic hedgehog fragment
level of transcription of Gli1 vs media only activated cultures [1]: No difference | level of transcription of ptc vs media only activated cultures [1]: No difference | transcription of Shh vs media only activated cultures (Shh peptide at t=0, 24 hr): significantly reduced | transcription of bcl-2 vs media only activated cultures (Shh peptide at t=0, 72 hr): significantly increased | Bcl-2 transcripts, time course normalised to 24 hr sample (in presence of exogenous Shh): increased at 48 hr and at 72 hr | Gli1 transcription, time course normalised to 24 hr sample (in presence of exogenous Shh): increased at 48 hr and was maintained at 72 hr | Shh transcription, time course normalised to 24 hr sample (in presence of exogenous Shh): increased both at 48 hr and 72 hr | ptc transcription, time course normalised to 24 hr sample (in presence of exogenous Shh, 72 hr): marginally higher
